We go through 29 compounds from patent US11191765B2, “Heterocyclic compounds for the inhibition of PASK” (BioEnergenix LLC, priority 2012, dated 2021).

As a reminder, the IC50 is the midpoint of a concentration-inhibition curve.

A value given as a limit tells only on which side of the number the result lay.

PASK (Invitrogen), sequence (Q96RG2 999-1251): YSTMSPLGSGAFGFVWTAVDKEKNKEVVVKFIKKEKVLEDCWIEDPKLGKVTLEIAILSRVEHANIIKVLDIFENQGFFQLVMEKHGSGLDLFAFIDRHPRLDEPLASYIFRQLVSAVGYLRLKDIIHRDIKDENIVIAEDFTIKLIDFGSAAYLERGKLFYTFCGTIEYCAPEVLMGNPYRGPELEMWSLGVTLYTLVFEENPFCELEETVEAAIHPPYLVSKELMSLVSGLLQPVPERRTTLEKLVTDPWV

The test deals with PASK (Invitrogen) (Homo sapiens (Human), UniProt Q96RG2). Nature of the test: PAS Kinase FRET Assay. It is filed as biochemical. Particulars: TR-FRET (665 nm/615 nm), Ulight-peptide substrate, 2 hours at 25° C.; read-out: IC50 Kinase Domain. From the text:
The aim of the FRET assay is to determine the inhibition potential of test compounds on targeted kinase. This assay platform provides a homogenous screening method for measuring kinase activity by quantitating the amount of phospho-substrate in solution following a kinase reaction.
In the presence of kinase and ATP, the Ulight-peptide is phosphorylated and captured by an anti-phospho-substrate antibody, which brings the Eu chelate donor and Ulight acceptor dyes into close proximity. Upon excitation at 340 nm, the Eu chelate transfers its energy to the Ulight dye, resulting in a fluorescent light emission at 665 nm.
Titration of kinase at 1 mM ATP was achieved via the following protocol. After making serial three-fold dilutions of PASK (Invitrogen) in reaction buffer across the plate; 5 μl of kinase dilution and 5 μl substrate/ATP mix were added to the wells of the white Optiplate-384 (PerkinElmer). The contents of the plate were and incubated at RT for 1 h. The reaction was stopped by adding 5 μl of stop solution to each test well followed by mixing and incubation at RT for 10 minutes. 5 μl of detection mix (detection antibody diluted in detection buffer) was added; the contents of the plate were mixed and then incubated in the dark for 1 hour at RT. The signal was recorded at TR-FRET mode (665 nm/615 nm). The results were graphed to calculate the EC50.
Titration of ATP at the EC50 concentration of kinase to determine ATP Km,app. was performed using the following method. After making serial dilutions of ATP (Invitrogen), 5 μl of ATP dilution and 5 μl substrate/kinase mix were added to the wells of the white Optiplate-384 (PerkinElmer). The contents of the plate were and incubated at RT for 1 h. The reaction was stopped by adding 5 μl of stop solution to each test well followed by mixing and incubation at RT for 10 minutes. 5 μl of detection mix (detection antibody diluted in detection buffer) was added; the contents of the plate were mixed and then incubated in the dark for 1 hour at RT. The signal was recorded at TR-FRET mode (665 nm/615 nm). The results were graphed to calculate the EC50 as the ATP Km,app.
Compound screening was done via the following method. 10 mM stock solution of test compound in DMSO was prepared by dissolving test compound in DMSO at RT for 1 hour, and then sonicating at 100% output for 8 minutes. If compound is not soluble under this condition, it was diluted to 3 mM. Kinase reaction buffer was prepared containing 10 mM MgCl2, 50 mM HEPES, 1 mM EGTA, 0.01% TWEEN-20, 2 mM DTT. Serial dilutions of the test compounds were prepared at 4×final assay concentrations using Freedom EVO200® dispensing system as follows: 12×10^−5 M, 4×10^−5 M, 1.33×10^−5 M, 4.44×10^−6 M, 1.48×10^−6 M, 4.92×10^−7 M, 1.65×10^−7 M, 5.48×10^−7 M, 1.82×10^−8 M, 6.09×10^−9, 2.03×10^−9 M. Test compounds (2.5 μl at 4×the final assay concentration) was added to wells using Freedom EVO200® dispensing system. As a positive control, 2.5 μl of positive compound was added to assay wells, and 2.5 μl of DMSO to assay wells as vehicle control. Kinase solution was prepared in reaction buffer at 2×final assay concentration. Kinase solution (5 μl) was added to each well of the assay plate. The substrate and ATP solution was prepared in kinase reaction buffer at 4×final assay concentration. The kinase reaction was started by adding 2.5 μl of substrate+ATP mix solution to each well of the assay plate. The plate is mixed on a plate shaker; then covered and allowed to react for 2 hours in the dark at 25° C. without shaking. The reaction was stopped by adding 5 μl of stop solution to each test well followed by mixing and incubation at RT for 10 minutes in the dark. 5 μl of detection mix (detection antibody diluted in detection buffer) was added; the contents of the plate were mixed and then incubated in the dark for 1 hour at RT. The signal was recorded at TR-FRET mode (665 nm/615 nm).
Background: In TR-FRET formats the signal depends on donor and acceptor labels being close together.
On to `CCn1ncc2cc(-c3cc(=O)n4nc(-c5ccc(F)cc5)nc4[nH]3)ccc21` [Example 21, 5-(1-Ethyl-1H-indazol-5-yl)-2-(4-fluorophenyl)-[1,2,4]triazolo[1,5-a]pyrimidin-7(4H)-one], for which the IC50 is no more than 10 µM.

`O=c1cc(-c2ccc3[nH]nnc3c2)[nH]c2nc(-c3ccc(Cl)cc3)nn12` [Example 39, 5-(1H-Benzo[d][1,2,3]triazol-5-yl)-2-(4-chlorophenyl)-[1,2,4]triazolo[1,5-a]pyrimidin-7(4H)-one]: the IC50 is no more than 10 µM.

For `O=c1cc(-c2ccc3[nH]ncc3c2)[nH]c2nc(-c3ccc(Cl)c(Cl)c3)nn12` [Example 10, 2-(3,4-Dichlorophenyl)-5-(1H-indazol-5-yl)-[1,2,4]triazolo[1,5-a]pyrimidin-7(4H)-one], the IC50 was no more than 10 µM.

On to `O=c1cc(-c2ccc3c(c2)OCCO3)[nH]c2nc(-c3ccccn3)nn12` [Example 28, 5-(2,3-Dihydrobenzo[b][1,4]dioxin-6-yl)-2-(pyridin-2-yl)-[1,2,4]triazolo[1,5-a]pyrimidin-7(4H)-one], for which the IC50 was no more than 10 µM.

Consider `O=c1cc(-c2ccc3[nH]nnc3c2)[nH]c2nc(-c3ccccc3)nn12` [Example 41, 5-(1H-Benzo[d][1,2,3]triazol-5-yl)-2-phenyl-[1,2,4]triazolo[1,5-a]pyrimidin-7(4H)-one], for which the IC50 is no more than 10 µM.

Turning to `CCc1nc2[nH]c(-c3ccc4[nH]nnc4c3)cc(=O)n2n1` [Example 6, 5-(1H-Benzo[d][1,2,3]triazol-5-yl)-2-ethyl-[1,2,4]triazolo[1,5-a]pyrimidin-7(4H)-one], the IC50 is no more than 10 µM.

As for `O=c1cc(-c2ccc3[nH]ncc3c2)[nH]c2nc(-c3ccc(Cl)cc3)nn12` [Example 44, 2-(4-Chlorophenyl)-5-(1H-indazol-5-yl)-[1,2,4]triazolo[1,5-a]pyrimidin-7(4H)-one], the IC50 was no more than 10 µM.

On to `O=c1cc(-c2ccc3c(c2)OCCO3)[nH]c2nc(Cc3ccccc3)nn12` [Example 18, 2-Benzyl-5-(2,3-dihydrobenzo[b][1,4]dioxin-6-yl)-[1,2,4]triazolo[1,5-a]pyrimidin-7(4H)-one], for which the IC50 was no more than 10 µM.

Regarding `O=c1cc(-c2ccc3[nH]nnc3c2)[nH]c2nc(-c3ccc(F)cc3)nn12` [Example 40, 5-(1H-Benzo[d][1,2,3]triazol-5-yl)-2-(4-fluorophenyl)-[1,2,4]triazolo[1,5-a]pyrimidin-7(4H)-one], the IC50 is no more than 10 µM.

In the case of `COc1ccc(-c2cc(=O)n3ncnc3[nH]2)cc1` [Example 26, 5-(4-Methoxyphenyl)-[1,2,4]triazolo[1,5-a]pyrimidin-7(4H)-one], the IC50 is no more than 10 µM.

Turning to `O=c1cc(-c2ccc3c(c2)OCO3)[nH]c2nc(-c3ccccn3)nn12` [Example 29, 5-(Benzo[d][1,3]dioxol-5-yl)-2-(pyridin-2-yl)-[1,2,4]triazolo[1,5-a]pyrimidin-7(4H)-one], the IC50 was no more than 10 µM.

For the compound `O=c1cc(-c2ccc3c(c2)OCCO3)[nH]c2ncnn12` [Example 17, 5-(2,3-Dihydrobenzo[b][1,4]dioxin-6-yl)-[1,2,4]triazolo[1,5-a]pyrimidin-7(4H)-one], the IC50 is no more than 10 µM.

`COc1ccc(-c2cc(=O)n3nc(Cc4ccccc4)nc3[nH]2)cc1` [Example 19, 2-Benzyl-5-(4-methoxyphenyl)-[1,2,4]triazolo[1,5-a]pyrimidin-7(4H)-one]: the IC50 was no more than 10 µM.

For the compound `CCn1ncc2cc(-c3cc(=O)n4nc(-c5ccc(Cl)cc5)nc4[nH]3)ccc21` [Example 42, 2-(4-Chlorophenyl)-5-(1-ethyl-1H-indazol-5-yl)-[1,2,4]triazolo[1,5-a]pyrimidin-7(4H)-one], the IC50 was no more than 10 µM.

Take `CNC(=O)c1nc2[nH]c(-c3ccc4[nH]nnc4c3)cc(=O)n2n1` [Example 7, 5-(1H-Benzo[d][1,2,3]triazol-5-yl)-N-methyl-7-oxo-4,7-dihydro-[1,2,4]triazolo[1,5-a]pyrimidine-2-carboxamide]: the IC50 is no more than 10 µM.

Regarding `O=c1cc(-c2ccc3nn[nH]c3c2)[nH]c2nc(-c3ccccc3Cl)nn12` [Example 22, 5-(1H-Benzo[d][1,2,3]triazol-6-yl)-2-(2-chlorophenyl)-[1,2,4]triazolo[1,5-a]pyrimidin-7(4H)-one], the IC50 was no more than 10 µM.

Consider `O=c1cc(-c2ccc3[nH]nnc3c2)[nH]c2nc(-c3ccccn3)nn12` [Example 2, 5-(1H-Benzo[d][1,2,3]triazol-5-yl)-2-(pyridin-2-yl)-[1,2,4]triazolo[1,5-a]pyrimidin-7(4H)-one], for which the IC50 was no more than 10 µM.

Take `Cc1nc2[nH]c(-c3ccc4[nH]nnc4c3)cc(=O)n2n1` [Example 43, 5-(1H-Benzo[d][1,2,3]triazol-5-yl)-2-methyl-[1,2,4]triazolo[1,5-a]pyrimidin-7(4H)-one]: the IC50 was no more than 10 µM.

As to `CC(C)c1nc2[nH]c(-c3ccc4[nH]nnc4c3)cc(=O)n2n1` [Example 14, 5-(1H-Benzo[d][1,2,3]triazol-5-yl)-2-isopropyl-[1,2,4]triazolo[1,5-a]pyrimidin-7(4H)-one], the IC50 is no more than 10 µM.

For the compound `NC(=O)c1nc2[nH]c(-c3ccc4nn[nH]c4c3)cc(=O)n2n1` [Example 24, 5-(1H-benzo[d][1,2,3]triazol-6-yl)-7-oxo-4,7-dihydro-[1,2,4]triazolo[1,5-a]pyrimidine-2-carboxamide], the IC50 was no more than 10 µM.

As to `Cc1nc2[nH]c(-c3ccc4[nH]ncc4c3)cc(=O)n2n1` [Example 4, 5-(1H-indazol-5-yl)-2-methyl-[1,2,4]triazolo[1,5-a]pyrimidin-7(4H)-one], the IC50 is no more than 10 µM.

On to `O=c1cc(-c2ccc3[nH]nnc3c2)[nH]c2nc(-c3cccc(Cl)c3)nn12` [Example 13, 5-(1H-Benzo[d][1,2,3]triazol-5-yl)-2-(3-chlorophenyl)-[1,2,4]triazolo[1,5-a]pyrimidin-7(4H)-one], for which the IC50 is no more than 10 µM.

On to `CCc1nc2[nH]c(-c3ccc4[nH]ncc4c3)cc(=O)n2n1` [Example 5, 2-Ethyl-5-(1H-indazol-5-yl)-[1,2,4]triazolo[1,5-a]pyrimidin-7(4H)-one], for which the IC50 was no more than 10 µM.

For `Cc1ccccc1-c1nc2[nH]c(-c3ccc4nn[nH]c4c3)cc(=O)n2n1` [Example 23, 5-(1H-benzo[d][1,2,3]triazol-6-yl)-2-o-tolyl-[1,2,4]triazolo[1,5-a]pyrimidin-7(4H)-one], the IC50 is no more than 10 µM.

With `COc1ccc(-c2cc(=O)n3nc(C)nc3[nH]2)cc1` [Example 27, 5-(4-Methoxyphenyl)-2-methyl-[1,2,4]triazolo[1,5-a]pyrimidin-7(4H)-one], the 50% inhibitory concentration (IC50) is no more than 10 µM.

As to `O=c1cc(-c2ccc3[nH]ncc3c2)[nH]c2nc(-c3ccccn3)nn12` [Example 3, 5-(1H-Indazol-5-yl)-2-(pyridin-2-yl)-[1,2,4]triazolo[1,5-a]pyrimidin-7(4H)-one], the IC50 is no more than 10 µM.

`Cc1nc2[nH]c(-c3ccc4c(c3)OCCO4)cc(=O)n2n1` [Example 16, 5-(2,3-Dihydrobenzo[b][1,4]dioxin-6-yl)-2-methyl-[1,2,4]triazolo[1,5-a]pyrimidin-7(4H)-one]: the IC50 was no more than 10 µM.

Regarding `O=c1cc(-c2ccc3[nH]nnc3c2)[nH]c2nc(Cc3ccccc3)nn12` [Example 45, 5-(1H-Benzo[d][1,2,3]triazol-5-yl)-2-benzyl-[1,2,4]triazolo[1,5-a]pyrimidin-7(4H)-one], the IC50 is no more than 10 µM.

Take `O=c1cc(-c2ccc3c(c2)OCO3)[nH]c2nc(Cc3ccccc3)nn12` [Example 1, 5-(Benzo[d][1,3]dioxol-5-yl)-2-benzyl-[1,2,4]triazolo[1,5-a]pyrimidin-7(4H)-one]: the IC50 was no more than 10 µM.
